row,Structure (SMILES),melting point [°C]
1,CCCCc1oc2ccccc2c1C(=O)N(Cc1ccccc1)Cc1ccc2cc(O)ccc2c1,160 to 164
2,O=C(CBr)CS(=O)(=O)C(c1ccc(Cl)cc1)c1ccc(Cl)cc1,122 to 123
3,Cc1cnc2c(N)cccc2c1Cl,112 to 114
4,O=C(c1cccnc1)N1CCC(c2ccc(F)cc2)=N1,128 to 130
5,O=C(CCCC1CCN(Cc2cccc(O)c2)CC1)c1ccc2c(c1)CCN(Cc1ccccc1)CC2,88 to 94
6,OCCOCn1cc(I)c2c(Cl)ncnc21,154 to 155
7,CCCOCCOc1ccc(-c2ccc3c(c2)C=C(C(=O)O)CCN3CCCOCC)cc1,98 to 100
8,CCCOc1ccc2c(c1)C(c1ccccc1OCC(=O)O)C(C(=O)O)C2c1ccc2c(c1)OCO2 (stereo unspecified),169 to 170
9,COc1ccc(Nc2nc3cccc(-c4ccc(CN5CCS(=O)(=O)CC5)cc4)n3n2)cc1,241
10,Fc1ccc(-c2nc3ccc(OC(F)(F)F)cc3[nH]2)cc1,158 to 160
11,Cc1nc(N)c2nc(C)n(CCCCCSc3ccccc3)c2c1C,181 to 183
12,CN1C(=O)C2(COc3cc4c(cc32)OCCO4)c2c(NC(=O)NC3CCCC3)cccc21 (stereo unspecified),133 to 135
13,CS(=O)(=O)c1ccc(-c2nn(Cc3cccnc3)c(=O)cc2-c2ccc(Cl)cc2)cc1,248
14,Cc1cc(-c2ccc(S(C)(=O)=O)cc2)n(-c2ccc(-c3ccco3)cc2)c1,133 to 135
15,COc1cccc(C(F)(F)F)c1S(=O)(=O)NC(=O)Nc1nc(C)cc(C)n1,190
16,CCc1c(-c2ccccc2)nn(C)c1-c1ccccc1,80 to 81
17,Oc1ccc(-c2ncc3ncc(-c4ccc(C(F)(F)F)cc4)cc3n2)cc1,203 to 204
18,COc1ccc(N2CCN(CCn3c(=NC(=O)C(F)(F)F)sc4cc(C(F)(F)F)ccc43)CC2)cc1,120

row,Structure (SMILES),melting point [°C]
1,CC(=O)Oc1ccc2c(c1Cl)Sc1ccccc1N2C(C)=O,155
2,ClC12CCCC(C1)C1CCC2C1 (stereo unspecified),68 to 69
3,CC(C)(C)c1ccc(C(=O)CCCCCC2CCCCC2)cc1NC(=O)CC1c2ccccc2Oc2ccccc21,134
4,CC(=O)N(NC(=O)c1ccccc1)[C@@H]1c2cc(C#N)ccc2OC(C)(C)[C@H]1O (relative stereo),212 to 213
5,CCOC(=O)c1cc(=O)c(O)c(-c2ccc(Cl)cc2)o1,157 to 159
6,CCc1ccccc1OCC(C)NC(=O)C(C#N)C(C)(C)C (stereo unspecified),94 to 97
7,Cc1nc(NC(=O)c2cnn3c(C(F)(F)F)cc(-c4ccc(C(F)(F)F)cc4)nc23)sc1S(=O)(=O)NC(CO)CO,215
8,N#CCCC(=O)c1cccc(Cl)c1,49 to 51
9,"CC(Sc1cnn(C(C)(C)C)c(=O)c1Cl)c1ccc(C(C)(C)C)cc1 (single isomer, unassigned; (+))",102 to 104
10,CN(c1cccc2cc(C3=NCC(CC(N)=O)S3)[nH]c12)S(=O)(=O)c1cccnc1 (stereo unspecified),185 to 186
11,CCOC(=O)c1cnc2c(cnn2CC)c1NN=C(C)CC#N,190 to 191
12,Cc1ccccc1C(=O)NC1CCC(=O)N2CCCC(C(=O)NC3CC(=O)OC3OCc3ccccc3)N2C1=O (stereo unspecified),106 to 110
13,COc1ccc(NC(=O)c2ccc(-c3ccc(-c4noc(C)n4)cc3)c(Cl)c2)cc1N1CCN(C)CC1,93 to 95
14,CON(C)C(=O)Nc1ccc(OCCc2ccc3c(c2)CC(C)(C)O3)nc1,79 to 80
15,CCOC(=O)C(F)Cc1ccc(OCCN(C)c2nc3ccccc3o2)cc1 (stereo unspecified),65 to 67
16,COC(=O)c1ccc2cc(-c3ccc(C(=O)OC)c(C45CC6CC(CC(C6)C4)C5)c3)ccc2c1,181 to 182
17,CC(=O)OCCCOc1ccc([N+](=O)[O-])c(C=C2NC(=O)NC2=O)c1,94 to 130
18,Cc1cc(-c2c(Cl)ccc(C(=O)c3cnn(C)c3O)c2Cl)on1,143 to 144

# From a melting point compilation (Tetko et al.; mined from patent text by program, amines drawn as free bases though some values may be those of a salt)
